The values below come from patent EP1184367A1, “AMIDE DERIVATIVES” (Sumitomo Pharmaceuticals Company, Limited, priority 1999, dated 2000).

Like-named read-outs stand apart in the source and are kept apart here.

This data set has as its system constant white light-induced retinal damage.

Source text: Male Wistar rats (7 weeks old, Charles River Japan Inc.) were purchased and maintained in cyclic light / dark environment (8:00-20:00 / light term) for one week, and then placed within the apparatus for constant white light exposure for two days. The constant white light exposure apparatus is a covered breeding box of 1020 mm in length, 425 mm in width, 520 mm in height, which is made of acryl boards and of which all inner side are covered with mirrors. Light was continuously irradiated all the day long (24 hours) using white fluorescent lamp attached to the ceiling of the apparatus. The average illuminance in the apparatus was 174.2 foot candle. After two days in the apparatus, the rats were moved to a darkroom and dark adapted for 1-4 hours. The rats were anesthetized with pentobarbital and placed in a stereotaxic frame. After topical mydriatica was given and electrodes were put on corneal surface, center of the forehead and the lower part of the lobe, the response in active potential of retina to the flash stimulation with fixed energy was determined from the recorded ERG (electroretinogram). The damage of retina was evaluated by the decrease in the amplitude of ERG a-wave which originated from retinal outer nuclear cells (photoreceptors). […]

For `CC(C)(COC(=O)CCC(=O)O)NC(=O)c1ccc(F)cc1F` [Example 3, N-(2-(3-Carboxypropionyloxy)-1,1-dimethylethyl)-2,4-difluorobenzamide], under “rat, in vivo, po, 100 mg/kg”, the “% recovery (Mean±S.E.M.)” value amounted to 14.0 ± 3.1%.

On to `CC(C)(COC(=O)CN)NC(=O)c1ccc(F)cc1F.O=S(=O)(O)c1ccccc1` [Example 4, N-(2-Glycyloxy-1,1-dimethylethyl)-2,4-difluorobenzamide benzenesulfonate], for which, where the note is “rats, 100 mg/kg orally administered in 0.5 % methylcellulose, just before constant light exposure and at the same time on the next day, two days of exposure, ERG a-wave amplitude relative to normal control and MC groups, five rats in a group”, the “% recovery (Mean±S.E.M.)” value is listed as 19.5 ± 3.3%.
